These are literature values, as cited in patent publication US20040009212A1, “Mucoadhesive thermoresponsive medicament-carrier composition” (PHARMA POWER BIOTEC CO. LTD., priority 2002, published 2004).

Each structure is given as a SMILES string.

This data set relates to leukoplakia. The conditions noted are these: of 12 leukoplakia patients.

`NCC(=O)CCC(=O)O` [ALA, 5-aminolevulinic acid]: the patients having response (topical ALA in 20wt. % eucerin with arabic gum and paraffin, with PDT) was 9 patients. Moreover, the “patients having full response” value (topical ALA with PDT) was 5 patients.
